Results on 13 compounds are retold here after ChEMBL document CHEMBL4665919, “Novel Tricyclic Pyroglutamide Derivatives as Potent RORγt Inverse Agonists Identified using a Virtual Screening Approach” (ACS Med Chem Lett, 2020).

A short description of data set [1]: Half life in human liver microsomes. The format is ADME, Microsome.
Data set [2] can be described thus: Half life in rat liver microsomes. The class given is ADME, Microsome. In general terms: Liver microsomes are vesicles of endoplasmic reticulum, rich in cytochrome P450 enzymes.
The nature of data set [3]: Half life in mouse liver microsomes. The class given is ADME, Microsome.
Data set [4] has as its target T1, Nuclear receptor ROR-gamma (Homo sapiens, UniProt P51449).
T1 sequence (P51449 whole entry): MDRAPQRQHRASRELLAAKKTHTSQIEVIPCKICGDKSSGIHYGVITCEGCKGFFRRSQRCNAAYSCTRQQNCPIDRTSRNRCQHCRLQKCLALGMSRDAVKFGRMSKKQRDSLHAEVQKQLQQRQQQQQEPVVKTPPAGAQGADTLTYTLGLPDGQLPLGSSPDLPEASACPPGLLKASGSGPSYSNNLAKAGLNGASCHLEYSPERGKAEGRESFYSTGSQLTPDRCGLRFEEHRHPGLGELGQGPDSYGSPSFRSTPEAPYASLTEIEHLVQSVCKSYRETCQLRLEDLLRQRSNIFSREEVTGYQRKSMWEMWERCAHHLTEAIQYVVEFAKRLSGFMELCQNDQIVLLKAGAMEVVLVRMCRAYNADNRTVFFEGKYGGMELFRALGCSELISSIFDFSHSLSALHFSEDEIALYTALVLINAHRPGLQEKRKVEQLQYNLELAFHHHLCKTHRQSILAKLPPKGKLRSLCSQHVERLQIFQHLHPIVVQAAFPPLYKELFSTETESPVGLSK
The data set is described as follows: Inverse agonist activity at Gal4-fused RORgammat LBD (unknown origin) by reporter gene assay. Background: In a reporter assay the amount or activity of a reporter protein is the signal.

For data set [5], the target named is T1, Nuclear receptor ROR-gamma. Briefly: Inverse agonist activity at RORgammat in human whole blood assessed as IL-17 production by ELISA. The class given is tissue-based.

pEC50: −log10 of the molar value. Where only a bound is given, the exact number is not on record here.

For the compound `[2H]C([2H])([2H])N1C(=O)[C@H](F)C[C@H]1C(=O)N1CC[C@@]2(S(=O)(=O)c3ccc(F)cc3)c3ccc(C(F)(C(F)(F)F)C(F)(F)F)cc3CC[C@@H]12`, the half-life in data set [1], in data set [2] and in data set [3] was above 120 min each time.

`O=C1[C@H](F)C[C@@H](C(=O)N2CC[C@@]3(S(=O)(=O)c4ccc(F)cc4)c4ccc(C(F)(C(F)(F)F)C(F)(F)F)cc4CC[C@@H]23)N1CCO`: the half-life was above 120 min in data set [1], 36 min in data set [2] and 60 min in data set [3].

The compound `O=C(O)CN1C(=O)[C@H](F)C[C@H]1C(=O)N1CC[C@@]2(S(=O)(=O)c3ccc(F)cc3)c3ccc(C(F)(C(F)(F)F)C(F)(F)F)cc3CC[C@@H]12` gave a pEC50 in data set [4] of 5.82.

For `N#CCCN1C(=O)[C@H](F)C[C@H]1C(=O)N1CC[C@@]2(S(=O)(=O)c3ccc(F)cc3)c3ccc(C(F)(C(F)(F)F)C(F)(F)F)cc3CC[C@@H]12`, the results for the negative-log EC50 (pEC50) in data set [5] and in data set [4] were 7.52 and 7.74, respectively. Further, the half-life in data set [1] was above 120 min; in data set [2] it was 45 min; in data set [3] it was 79 min.

As to `[2H]C([2H])([2H])N1C(=O)C(F)(F)C[C@H]1C(=O)N1CC[C@@]2(S(=O)(=O)c3ccc(F)cc3)c3ccc(C(F)(C(F)(F)F)C(F)(F)F)cc3CC[C@@H]12`, the half-life was 57 min in data set [1], 58 min in data set [2] and 88 min in data set [3].

For the compound `CC(C)N1C(=O)[C@H](F)C[C@H]1C(=O)N1CC[C@@]2(S(=O)(=O)c3ccc(F)cc3)c3ccc(C(F)(C(F)(F)F)C(F)(F)F)cc3CC[C@@H]12`, the half-life in data set [1] stood at 50 min; in data set [2], 45 min; in data set [3] it was 52 min.

Regarding `CN1C(=O)[C@H](F)C[C@H]1C(=O)N1CC[C@@]2(S(=O)(=O)c3ccc(F)cc3)c3ccc(C(F)(C(F)(F)F)C(F)(F)F)cc3CC[C@@H]12`, the half-life in data set [1] is above 120 min; in data set [2] it was 55 min; in data set [3] it was 75 min.

For the compound `CN1C(=O)[C@@H](O)C[C@H]1C(=O)N1CC[C@@]2(S(=O)(=O)c3ccc(F)cc3)c3ccc(C(F)(C(F)(F)F)C(F)(F)F)cc3CC[C@@H]12`, the half-life worked out at 27 min in data set [1], 10 min in data set [2] and 25 min in data set [3].

As for `O=C1[C@H](F)C[C@@H](C(=O)N2CC[C@@]3(S(=O)(=O)c4ccc(F)cc4)c4ccc(C(F)(C(F)(F)F)C(F)(F)F)cc4CC[C@@H]23)N1Cc1ccc(F)cc1`, the negative logarithm of the EC50 (pEC50) in data set [5] was 7.24; in data set [4], 8.15. Besides, the half-life in data set [1] is 24 min; in data set [2] it was 35 min; in data set [3] it was 29 min.

In the case of `N#Cc1ccc(CN2C(=O)[C@H](F)C[C@H]2C(=O)N2CC[C@@]3(S(=O)(=O)c4ccc(F)cc4)c4ccc(C(F)(C(F)(F)F)C(F)(F)F)cc4CC[C@@H]23)cc1`, the half-life in data set [1] is 58 min; in data set [2] it was 61 min; in data set [3], 74 min. In data set [4], this compound had a pEC50 of 7.52.

Turning to `[2H]C([2H])([2H])N1C(=O)[C@@H](F)C[C@H]1C(=O)N1CC[C@@]2(S(=O)(=O)c3ccc(F)cc3)c3ccc(C(F)(C(F)(F)F)C(F)(F)F)cc3CC[C@@H]12`, the half-life was above 120 min in data set [1], 48 min in data set [2] and 85 min in data set [3].

For the compound `CO[C@H]1C[C@@H](C(=O)N2CC[C@@]3(S(=O)(=O)c4ccc(F)cc4)c4ccc(C(F)(C(F)(F)F)C(F)(F)F)cc4CC[C@@H]23)N(C)C1=O`, the values for the half-life in data set [1], in data set [2] and in data set [3] were above 120 min, 43 min and 94 min, respectively.

As to `CN1C(=O)CC[C@H]1C(=O)N1CC[C@@]2(S(=O)(=O)c3ccc(F)cc3)c3ccc(C(F)(C(F)(F)F)C(F)(F)F)cc3CC[C@@H]12`, the half-life in data set [1] was 87 min; in data set [2], above 120 min; in data set [3], 116 min.

The term half-life denotes how long it takes for the measured level to halve. For orientation: pEC50 means the negative decadic logarithm of the EC50, by convention in mol/L.
